In ChEMBL document CHEMBL5725642, “Inhibitors of human immunodeficiency virus replication” (2018):
pEC50: −log10 of the molar value. Several values for one entry are separate records, joined by “and”; a condition that tells them apart may be missing. Equal values may be shown once.

Test: Infectivity Assay: HIV cell culture assay¿MT-2 cells, 293T cells and the proviral DNA clone of NL4-3 virus were obtained from the NIH AIDS Research and Reference Reagent Program. MT-2 cells were propagated in RPMI 1640 media supplemented with 10% heat inactivated fetal bovine serum (FBS), 100 ug/ml penicillin G and up to 100 units/ml streptomycin. The 293T cells were propagated in DMEM media supplemented with 10% heat inactivated FBS, 100 ug/ml penicillin G and 100 ug/ml streptomycin. A recombinant NL4-3 proviral clone, in which a section of the nef gene was replaced with the Renilla luciferase gene, was used to make the reference virus used in these studies. The recombinant virus was prepared through transfection of the recombinant NL4-3 proviral clone into 293T cells using Transit-293 Transfection Reagent from Mirus Bio LLC (Madison, Wis.). Supernatent was harvested after 2-3 days after transfection, and the amount of virus present was titered in MT-2 cells using luciferase enzyme activity as a marker. Luciferase activity was quantitated using the EnduRen Live Cell Substrate from Promega (Madison, Wis.). Antiviral activities of compounds toward the recombinant virus were quantified by measuring luciferase activity in MT-2 cells infected for 4-5 days with the recombinant virus in the presence of serial dilutions of the compound.The 50% effective concentration (EC50) was calculated by using the exponential form of the median effect equation where (Fa)=1/[1+(ED50/drug conc.)m](Johnson V A, Byington R T. Infectivity Assay. In Techniques in HIV Research. ed. Aldovini A, Walker B D. 71-76. New York: Stockton Press. 1990).
Assay type: cell-based

SMILES	pEC50
CN(C(=O)[C@H](Cc1ccccc1)NC(=O)NS(=O)(=O)c1ccccc1-c1cnn(C)c1)c1ccc2c(c1)OCO2	5.26 and 6.26
Cc1ccccc1S(=O)(=O)NC(=O)N[C@H](CCc1ccccc1)C(=O)N(C)c1ccc2c(c1)OCO2	4.26
CN(C(=O)[C@H](Cc1ccccc1)NC(=O)NS(=O)(=O)c1ccccc1)c1ccc2c(c1)OCO2	6.26
CN(C(=O)[C@@H](Cc1ccccc1)NC(=O)NS(=O)(=O)c1ccccc1)c1ccc2c(c1)OCO2	4.26
Cc1ccccc1S(=O)(=O)NC(=O)N[C@@H](CCc1ccccc1)C(=O)N(C)c1ccc2c(c1)OCO2	4.26
